Source: US20170321163A1, “ENZYME STABILIZERS” (Henkel AG & Co. KGaA, priority 2014, published 2017)

Test system: protease
Test: Storage stability of protease in detergent formulation, residual proteolytic activity by AAPF-pNA assay
Assay type: biochemical
Details: 1% candidate compound, 1% protease in detergent formulation; stored 8 weeks at 30° C.; AAPF-pNA substrate, 25° C., pH 8.6, 410 nm
Description: The storage stability of protease-containing detergents and cleaning agents was tested for use as enzyme stabilizers in the presence of candidate compounds. For this purpose, the candidate compounds were formulated in the presence of up to 1% (w/w) 1,2-propanediol in a detergent or cleaning agent formulation (see Table 2). The protease (1% PUR) was then added to the formulation, and the formulation stored for 8 weeks at 30° C.
In parallel batches, the proteolytic activity of 1% protease was determined in 4% PG (1,2-propanediol), 85% matrix (see Table 1), then, each following incubation with 1% of the candidate compound (specified in w/w; QS 100% with water) determined in half of the batches in the formulation as indicated in Table 1 by the release of the chromophore para-nitroaniline from the succinyl-alanine-alanine-proline-phenylalanine para-nitroanilide substrate (AAPF-pNA; Bachem L-1400). The release of the pNA caused an increase in the absorbance at 410 nm, the progress over time of which is a measure of enzymatic activity. […]
For evaluation, the initial values for the proteolytic activity of the agent in question were compared to the values determined after storage. […] The stabilizing effect of each tested compound is thus measured as a relative percentage increase in the residual protease activity.

`CC(=O)[O-].CCn1cc[n+](C)c1` [1-ethyl-3-methylimidazolium acetate] was tested, and the “Relative residual activity after incubation with KV” value was 122%.
